Earlier results as cited in patent publication US20090215137A1, “METHODS FOR THE ECONOMICAL PRODUCTION OF BIOFUEL PRECURSOR THAT IS ALSO A BIOFUEL FROM BIOMASS” (GEVO, INC., priority 2007, published 2009).
Converted amounts (≈) assume the structure as drawn. Where two headings read alike, the source gives them in different places. Values belong to the compound of their own block, whether it stands above or below them.

Assays:
[1] = octanol:water
Klyveromyces marxianus = conditions: in binary combination

Compound: CCC(C)O (stereo not drawn) [Biocatalyst 2-butanol, 2-butanol]
- log P [1]: 0.6

Compound: COc1cc(C=O)ccc1O [Vanillin, vanillin]
- reduction in both cell growth and fermentation (Klyveromyces marxianus): 90%

- Solubility in water (20° C., unless noted) (in words): miscible
Compound: CC(C)O [Biocatalyst 2-propanol, 2-propanol]

- Solubility in water (20° C., unless noted): 300 µg/mL (≈ 2300 µM)
- solubility limit (two-phase system (Chen, Q. 1995)): < 1100 µg/mL
- log P [1]: 3
Compound: CCCCCCCCO [Biocatalyst 1-octanol, 1-octanol]
